Measurements taken from patent publication US5491135A (priority 1993, dated 1996).
≈ marks a conversion by molar mass, not a printed value. Where “and” joins values, the source holds several entries; their conditions need not be identical. Equal entries are not always repeated. Entries after “also recorded” stand apart in the source; their conditions may differ.

Tests used:
[1] = system: HCMV strain AD 169; assay: Rabbit model of HCMV chorioretinitis (Example 5); assay type: in vivo, pigmented rabbit; settings: for histology: preliminary
Procedure: A total of 32 pigmented rabbits were used in this study. Animals were evaluated by slit lamp and indirect ophthalmoscopy to determine normal ocular morphology and lack of preexisting pathology. Animals were handled as follows:
[1] On day 0, all rabbits were inoculated by mid-vitreal injection of 10^5 PFU HCMV strain AD 169 in 100 μl.
[2] Animals were maintained in individual cages and developing chorioretinal HCMV disease was monitored daily. On day 2 PI, HCMV-inoculated animals were divided into 8 groups of 4 rabbits each with matched chorioretinal disease scores. The HCMV-infected rabbits received intravenous therapy as indicated below:
Group #1--4 animals, intravenous injection of high dose experimental drug (50 mg/kg) daily from day 2 through 10 PI. A total of 9 IV injections.
Group #3--4 animals, intravenous injection of low dose experimental drug (20 mg/kg) daily from day 2 through 10 PI. A total of 9 IV injections.
Group #4--4 animals, intravenous injection of high dose experimental drug (50 mg/kg) daily from day 2 through 10 PI (a total of 9 IV injections) plus high dose DHPG 10 mg/kg/day in 2 divided doses from day 2 through 10 PI (a total of 18 IV injections).
Group #5--4 animals, intravenous injection of high dose experimental drug (50 mg/kg) daily from day 2 through 10 PI (a total of 9 IV injections) plus low dose DHPG 5 mg/kg/day in 2 divided doses from day 2 through 10 PI (a total of 18 IV injections).
Group #6--4 animals, intravenous injection of low dose experimental drug (20 mg/kg) daily from day 2 through 10 PI (a total of 9 IV injections) plus low dose DHPG 5 mg/kg/day in 2 divided doses from day 2 through 10 PI (a total of 18 IV injections).
Group #7--4 animals, intravenous injection of DHPG 10 mg/kg/day in 2 divided doses from day 2 through day 10 PI. A total of 18 IV injections.
Group #8--4 animals, intravenous injection of sterile saline on days 2 through 10 PI.
[3] All animals received daily indirect ophthalmoscopic examinations to evaluate clinical HCMV disease progression (From days 2 through 10 PI). The indirect ophthalmoscopic examinations were performed independently by two readers who were masked as to the therapy that the rabbits were receiving.
[4] All animals were sacrificed on day 12 PI. Chorioretina and iris tissues and vitreous samples will be removed and processed for HCMV recovery by cell sonicate assay on Hs68 cell monolayers. Selected ocular and lung tissue samples were processed for histochemistry to evaluate HCMV-induced ocular pathology in treated and non-treated groups.
The clinical, virus recovery and histological efficacy results for all drug-treated intravenous therapy groups were correlated with each other and with the placebo therapy group.

[2] = system: Varicella; assay: In vitro antiviral assay; assay type: cell-based; settings: Vero
[3] = system: Herpes-1; assay: In vitro antiviral assay; assay type: cell-based; settings: Vero
[4] = system: herpes virus-2; assay: In vitro antiviral assay; assay type: cell-based
[5] = system: simian varicella virus; assay: Simian varicella virus infection in African green monkeys; assay type: in vivo, African green monkey
Procedure: Fifteen African green monkeys were weighed and bled for clinical chemistry hematology baselines. […] Each of the 15 monkeys were infected with simian varicella virus by intratracheal inoculation of 3.7×10^4 plaque forming units (PFU) of simian varicella virus. […] Control monkeys, service as infection controls, received twice daily intravenous injections of phosphate buffered saline administered at 1.0 ml/kg of body weight. A second group of three monkeys received PALA at 50 mg/kg/day given by intravenous bolus injection into the saphenous vein. A third group was given a lower dose of PALA at 20 mg/kg/day administered in a similar manner. Acyclovir treatment was administered at a subeffective dose of 10 mg/kg/day also given as intravenous bolus injection into the saphenous vein. A fifth group of three monkeys received a combined treatment of PALA at 20 mg/kg/day and acyclovir at 10 mg/kg/day. The drugs were injected into opposite veins at each time of treatment.
Drug solutions were prepared daily prior to treatment. Treatment was begun 24 hours after virus inoculation. PALA was provided as a solution in vials containing 5 ml at 100 mg/ml. The contents of three vials were pooled and seven ml of the pooled drug diluted to 28 ml to give 25 mg/ml. Five ml of this solution was diluted to […] to give 10 mg/ml. Drug was administered twice daily resulting in total daily doses of 50 or 20 mg/kg/day.
Acyclovir received as a gift from Burroughs Wellcome was weighed out as a 200 mg quantity. This was diluted with 5 ml of PBS and pH adjusted to 11.0 with 1N NaOH to effect solution. This was subsequently diluted to 40 ml to give a solution of 5 mg/ml and sterilized by filtration. Again, 1 ml per kg of body weight was administered by intravenous injection twice daily resulting in a dose of 10 mg/kg/day.
The clinical course of simian varicella infection was followed by collection of 2 ml of blood in heparin on day 2, 5, 7, 9 and 11 post-inoculation. The lymphocytes in the 2 ml specimen were separated on ficol-hypaque gradients, washed twice in RPMI-1640 medium and suspended in 10 ml of this medium. The 10 ml volume was divided between two 25 cm^2 tissue culture flasks seeded 24 hours earlier with Vero cells. After 5-7 days incubation, the culture fluids were discarded from the flasks and the cell monolayer fixed with methanol and stained with methylene blue-basic fuchsin. When dried the number of plaques in each flask were counted and the mean number of plaques between the two paired flasks were determined and expressed as a quantitation of viremia per ml of blood.
Rash was evaluated daily using a subjective scoring of severity from ± to 4+. A ± score indicates less than 10 vesicles seen on the skin of the monkey while 4+ indicates numerous vesicles covering the majority of the body surface. General clinical condition was assessed daily and anorexia noted by counting the number of food biscuits consumed daily. Monkeys dying during the course of the experiment were necropsied and simian varicella was determined as the cause of death based on the typical pathology. Baseline hematology and clinical chemistry tests were performed at three days before virus inoculation and again on day 0, immediately before virus inoculation. Following inoculation of simian varicella virus blood was taken for hematology and clinical chemistry tests at 3, 7, 9 and 11 days.
At 14 and 21 days after virus inoculation, blood was taken and the serum separated for quantitation of antibody. Antibody titers were obtained in a serum neutralization test employing a plaque reduction assay. The antibody titer expressed is the dilution of serum resulting in an 80 percent reduction in the number of plaques from that number occurring in control cultures without added serum.

[6] = system: Vero cells; settings: uninfected
[7] = in vitro
[8] = PALA 50 daily, DHPG 10/day, or PALA 50 + DHPG 10 or 5 mg/kg i.v.
[9] = PALA 50 mg/kg every other day i.v.
[10] = PALA 20 daily, alone or + DHPG 5 mg/kg i.v.

## Nc1nc(O)c2ncn(COC(CO)CO)c2n1 [DHPG, reference compound]
[1]; [8]
  HCMV recovery day 12 PI: No HCMV was recovered
  clinical efficacy: did reduce the development of HCMV chorioretinal infection and disease; also recorded: effective in reducing the severity of HCMV-induced chorioretinal disease
  lung appearance at sacrifice: the lungs appeared normal
  vitreitis severity: moderate levels from day 4 through day 10 PI
[1]; by day 6-7 PI, DHPG 10 mg/kg/day
  eyes with stabilized chorioretinal disease: 70%

## O=C(O)C[C@H](NC(=O)CP(=O)(O)O)C(=O)O [PALA]
[2]
  IC50: 10 µg/mL (≈ 39.2 µM)
  TI: 32.0
[3]
  IC50: no inhibitory activity and None
[4]
  inhibitory activity: no inhibitory activity
[5]; PALA 20 mg/kg/day i.v.
  death: died later that same day
[5]; PALA 50 mg/kg/day i.v.
  death: died on day 10
[5]; PALA 50 or Acyclovir 10 mg/kg/day
  thrombocytopenia on day 11: one monkey
[5]; day 5, PALA 50 mg/kg/d i.v.
  Viremia, Mean PFU: 136 PFU and 154 PFU and 148 PFU
[5]; day 13, PALA 50 mg/kg/d i.v.
  Severity of Rash: 4+
[5]; day 14, PALA 50 mg/kg/d i.v.
  Severity of Rash: 4+
[5]; high concentrations
  immunosuppression: Some concentration dependent immunosuppression was noted at high concentrations
[1]; PALA 20 mg/kg daily i.v.
  histology: diffuse disease with moderate to severe chorioretinal disease
[1]; PALA 50 mg/kg daily i.v.
  histology: moderate areas of chorioretinal HCMV disease restricted to the inner retina
[1]; [9]
  HCMV recovery day 12 PI: No HCMV was recovered
  clinical efficacy: marginally effective
  lung appearance at sacrifice: clear and non congested
  optic nerve head edema and redness: severe on days 3-4 PI
  vitreitis severity: moderate to severe levels within 3-4 days post inoculation
[1]; [10]
  HCMV recovery day 12 PI: No HCMV was recovered
  clinical efficacy: not effective
[1]; [8]
  HCMV recovery day 12 PI: No HCMV was recovered
  clinical efficacy: only marginally effective; also recorded: not effective
  lung appearance at sacrifice: clear and non congested
  vitreitis severity: moderate levels within 3-4 days post inoculation
[1]; rabbit, in vivo
  interstitial pneumonitis: prevented interstitial pneumonitis
[6]
  TC50: > 320 µg/mL
[7]; uninfected vero cells
  CC50: > 320 µg/mL
[7]; vero cells
  CC50: > 320 µg/mL
